The source of these data is PMC5342726, “Identification of small molecule inhibitors of ERCC1-XPF that inhibit DNA repair and potentiate cisplatin efficacy in cancer cells” (Oncotarget, 2016).

Structures are written as SMILES. Read-outs that look alike come from different tables or passages of the source.

In this experiment the target is T1, ERCC1-XPF (Homo sapiens, UniProt P07992+Q92889).
T1 construct: made in house; host or cells: Sf9 insect cells, baculovirus (obtained from Aziz Sancar)
T1 sequence (Q92889 1-916): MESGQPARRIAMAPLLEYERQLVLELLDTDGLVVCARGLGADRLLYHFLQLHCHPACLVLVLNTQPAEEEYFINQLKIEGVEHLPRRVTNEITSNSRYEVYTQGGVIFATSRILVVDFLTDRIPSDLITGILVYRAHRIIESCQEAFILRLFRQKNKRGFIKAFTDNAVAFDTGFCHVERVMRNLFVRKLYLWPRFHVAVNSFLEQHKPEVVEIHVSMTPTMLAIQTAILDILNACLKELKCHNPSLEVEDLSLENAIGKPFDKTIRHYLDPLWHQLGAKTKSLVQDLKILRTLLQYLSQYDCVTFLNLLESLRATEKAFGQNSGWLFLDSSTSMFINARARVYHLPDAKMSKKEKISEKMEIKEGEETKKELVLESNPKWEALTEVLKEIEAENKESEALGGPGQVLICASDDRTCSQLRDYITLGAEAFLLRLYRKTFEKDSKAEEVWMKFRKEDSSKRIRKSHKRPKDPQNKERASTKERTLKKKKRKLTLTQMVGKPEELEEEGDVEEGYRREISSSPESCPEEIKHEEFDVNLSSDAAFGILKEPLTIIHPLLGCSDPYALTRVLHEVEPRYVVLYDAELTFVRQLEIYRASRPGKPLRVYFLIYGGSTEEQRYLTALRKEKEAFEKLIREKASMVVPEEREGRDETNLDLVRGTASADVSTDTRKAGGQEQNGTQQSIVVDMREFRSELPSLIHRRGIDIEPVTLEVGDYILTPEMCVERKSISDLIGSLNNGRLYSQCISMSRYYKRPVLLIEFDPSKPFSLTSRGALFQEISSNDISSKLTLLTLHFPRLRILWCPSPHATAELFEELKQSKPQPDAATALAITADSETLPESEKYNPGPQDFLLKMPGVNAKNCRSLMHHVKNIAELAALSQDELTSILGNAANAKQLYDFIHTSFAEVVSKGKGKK
T1 sequence (P07992 1-297): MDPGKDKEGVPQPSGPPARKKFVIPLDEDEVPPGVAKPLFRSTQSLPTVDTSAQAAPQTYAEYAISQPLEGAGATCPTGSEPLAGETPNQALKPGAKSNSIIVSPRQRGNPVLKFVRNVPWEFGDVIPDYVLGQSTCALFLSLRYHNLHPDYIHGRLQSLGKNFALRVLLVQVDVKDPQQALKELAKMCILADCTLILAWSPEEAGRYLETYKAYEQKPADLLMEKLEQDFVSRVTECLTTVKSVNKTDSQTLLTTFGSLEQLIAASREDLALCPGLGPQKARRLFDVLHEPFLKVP
Kind of experiment: HTS fluorescence assay of ERCC1-XPF endonuclease activity. It counts as biochemical. From the text: To screen for ERCC1-XPF inhibition, an existing in vitro assay was optimized to a 96-well plate format to allow for screening of compound libraries (NCI-DTP diversity set). These compounds and subsequent vialed compounds were from the Drug Synthesis and Chemistry Branch, Developmental Therapeutics Program, Division of Cancer Treatment and Diagnosis at the National Cancer Institute. We used purified ERCC1-XPF (Supplementary Figure S1) and describe the purification procedure in Supplementary Information. The initial cuvette-based assay was optimized for DNA, MgCl2 concentrations as well as the incubation time to be used in the fluorescence assay in a 96 well plate format (Supplementary Figure S2). The assay consists of a 10 nM DNA (Q+Fl substrate annealed, described below) and 7.5 nM ERCC1-XPF protein in buffer containing 50 mM Tris-HCl pH8.0, 2 mM MgCl2, 0.1 mM BSA, and 0.5 mM β-mercaptoethanol. For preliminary screening, 150 μL of DNA was added to each well and the fluorescence signal was measured at 525 nm following excitation at 485 nm. Compounds or controls were then added to individual wells for a total of 80 compounds on each plate and the fluorescent signal was re-measured. We initially ran the screen using 50 μM compound and then repeated using 10 μM compound. 16 controls were used per plate, which consisted of buffer alone, DNA alone, ERCC1-XPF alone, 10 nM fluorescein ssDNA (positive signal), and 10 nM Q-Fl DNA with 7.5 nM ERCC1-XPF (positive signal). 7.5 nM ERCC1-XPF was added to each well containing the compounds and DNA and incubated for 30 minutes at 37°C after which the fluorescent signal was measured again.
The synthetic DNA substrate mimics a native forked ssDNA-dsDNA substrate of ERCC1-XPF (Figure 1A). This forked DNA substrate has a dsDNA region (14 bases) and a region containing two ssDNA flaps (12 bases each). One 26-mer DNA oligonucleotide contains a site-specific fluorescein modification at the indicated position (Fl Oligo: 5' - GCCAGCGCTCGGAT(AminoC6dT)(FLSN) TTTTTTTTTTT). The semi-complementary strand was synthesized containing a DABCYL quencher (Q) molecule at the depicted position (Q Oligo: 5' - TTTTTTTTTTT (AminoC6dT)(Dabcyl) ATCCGAGCGCTGGC; Figure 1A). The fluorescein (*) molecule has an excitation peak centered at 485 nm and an emission peak centered at 525 nm. The quencher (Q) molecule is able to quench the fluorescence signal of the fluorescein when it is in close proximity. The design of the semi-duplex DNA substrate is such that the fluorescein and DABCYL quencher are directly opposite one another at the double-stranded and single-stranded DNA junction (Figure 1A). […] Upon cleavage by ERCC1-XPF, (~4-5 bases from the dsDNA-ssDNA) the fluorescein label on the cleaved DNA is released into solution and results in a significant increase in fluorescence as the quencher is no longer in close proximity. The DNA substrate is also incorporated with a restriction enzyme site (HhaI) within the duplex DNA that results in a cleavage pattern similar to ERCC1-XPF. This serves as a positive control and allows assessment of ERCC1-XPF cleavage product. This DNA substrate is used in the solution based fluorescence screening assay to screen for inhibitors of ERCC1-XPF endonuclease activity. In the 96 well platform, the Z factor was calculated to be ~0.87 indicating a highly robust assay and highly suitable for a HTS. A Molecular Devices Spectramax M5 plate reader was used for fluorescence detection. The DNA substrate was the same for gel-based assays besides the fluorescent/quencher modifications and 5'-labeling using γ-ATP^32. For the secondary screen, the reaction was setup in a tube with 10 nM DNA, 7.5 nM XPF-ERCC1, 20 U/ml of HhaI, or 7.5 nM XPG (Supplementary Figure S3A) in nuclease reaction buffer with compound titration and incubated at 37°C for 30 minutes. The reaction was stopped by chelating the metal in the buffer and read in the Spectramax M5 plate reader.

Setting [1] is: IC50s calculated by CompuSyn, SD from 3 plots, read-out: ERCC1-XPF IC50.

In the case of `Cc1ccc(S(=O)(=O)Oc2cc(S(=O)(=O)O)cc3cc(S(=O)(=O)O)cc(N)c23)cc1` [NSC16168], under setting [1], the IC50 was 420 ± 112 nM.
Consider `Oc1cc(O)c2c(c1)OC(c1ccc(O)c(O)c1)C(O)C2c1c(O)cc(O)c2c1OC(c1ccc(O)c(O)c1)C(O)C2` (stereo not drawn) [NSC143099], for which the IC50 was 22 ± 3 nM under setting [1] and roughly 22 nM (read-out: 50% inhibition of ERCC1-XPF).
